Measured values as given in patent US20230348453A1, “HALOGENATED-HETEROARYL AND OTHER HETEROCYCLIC KINASE INHIBITORS, AND USES THEREOF” (iOmx Therapeutics AG, priority 2020, published 2023).
Where two headings read alike, the source gives them in different places.

Experiments:
[1] = in vivo; cited from earlier work
[2] = Human plasma-protein binding
[3] = Murine plasma protein binding
[4] = microsomes
SIK3 = SIK3 (Homo sapiens (Human), UniProt Q9Y2K2); conditions: read-out: SIK3 IC50
SIK2 = SIK2 (Homo sapiens (Human), UniProt Q9H0K1); conditions: read-out: SIK2 IC50
ABL1 wt = ABL1 wt (Homo sapiens (Human), UniProt P00519); assay type: biochemical
[5] = microsomes; remark: listed apart in the source
SRC (GST-HIS-tag) = SRC (GST-HIS-tag) (Homo sapiens (Human), UniProt P12931); assay type: biochemical
SIK1 = SIK1 (Homo sapiens (Human), UniProt P57059); conditions: read-out: SIK1 IC50
hERG potassium channel = hERG potassium channel (Homo sapiens (Human), UniProt Q12809); conditions: cited from earlier work
MDR1 (P-gp) = MDR1 (P-gp) (Homo sapiens (Human), UniProt P08183); experiment: in vitro; conditions: dog, MDCK-MDR1, MDCK-MDR1 cells
in vitro [6] = conditions: dog, MDCK, MDCK-wild type cells
[7] = cited from earlier work
RET [8] = target: T1, RET (Homo sapiens (Human), UniProt P07949); experiment: biochemical; conditions: read-out: RET residual activity (%) at 1 μM, 1 μM
HCK = HCK (Homo sapiens (Human), UniProt P08631); assay type: biochemical; conditions: Kinase Profiler
[9] = Screening PK in mice after 30 mg/kg po; conditions: mouse, in vivo
KU812 tumours = conditions: 50 mg/kg/day for 5 days; cited from earlier work
[10] = human, in vivo; cited from earlier work
K562 CML cells = conditions: 10 mg/kg/day; cited from earlier work
RET [11] = target: T1, RET
[12] = Full pharmacokinetic study in mice; conditions: mouse, in vivo
K562 human CML tumours = conditions: PO once a day for 10 days, 5-days-on and 2-days off; cited from earlier work
[13] = Metabolite profile in hepatocytes / in vivo
Description: Metabolites are identified using high-resolution mass spectrometry.

HCT116 cells = experiment: TNF-sensitised cell viability assay (CellTiter-Glo); conditions: Homo sapiens, HCT-116, read-out: HCT116 IC50 (at 10 ng/ml rHuTNF)
[14] = Plasma stability in human plasma; assay type: in vitro ADME; conditions: read-out: plasma stability T1/2
KASUMI-1 cell line [15] = experiment: Cell killing of pMEF2C-positive KASUMI-1 cell line; assay type: cell-based
[16] = Human hepatocyte stability; assay type: in vitro ADME; conditions: human, hepatocytes
in vitro [17] = conditions: human, microsomes
HEL cell line [18] = experiment: Growth inhibition (GI50) of AML cell lines; assay type: cell-based; conditions: Homo sapiens, pMEF2C-negative, read-out: GI50 against HEL cell line
in vitro [19] = conditions: mouse, microsomes
[20] = test system: NFKB activity in MC38 cells; experiment: TNF-induced NFKB activity (NFKB-dependent luciferase reporter); conditions: 10 ng/ml rMuTNF
[21] = test system: NFKB activity in PANC-1 cells; experiment: as above; conditions: 10 ng/ml rHuTNF
panel of AML cell lines = experiment: Lysis of a panel of AML cell lines; assay type: cell-based; conditions: cell lines that have phosphorylated MEF2C protein
MV4-11 cell line = experiment: Growth inhibition (GI50) of AML cell lines; assay type: cell-based; conditions: Homo sapiens, MV4-11, read-out: GI50 against MV4-11 cell line
[22] = test system: MC38 colorectal carcinoma tumours; experiment: MC38 syngeneic mouse tumour model (Example 8.1); conditions: MC38; 100 mg/Kg, BID po
CSF1R = CSF1R (Homo sapiens (Human), UniProt P07333); assay type: biochemical; conditions: Kinase Profiler
[23] = Plasma stability in mouse plasma; assay type: in vitro ADME; conditions: read-out: plasma stability T1/2
[24] = Mouse hepatocyte stability; assay type: in vitro ADME; conditions: hepatocytes
HEL cell line [25] = experiment: Cell killing of pMEF2C-negative HEL cell line; assay type: cell-based
in vivo = conditions: male, CD1, mouse, po, 30 mg/kg
[26] = in vivo
KASUMI-1 cell line [27] = experiment: Growth inhibition (GI50) of AML cell lines; assay type: cell-based
[28] = test system: MC38 murine tumour cell line; experiment: TNF-sensitised cell viability assay (CellTiter-Glo); conditions: Mus musculus
[29] = test system: HDAC4 phosphorylation in PANC-1 cells; experiment: HDAC4 phosphorylation (Meso Scale Discovery assay); conditions: 10 ng/mL rHuTNF
AML = conditions: administered intraperitoneally; cited from earlier work

T1 sequence (P07949 29-1114 limits assumed): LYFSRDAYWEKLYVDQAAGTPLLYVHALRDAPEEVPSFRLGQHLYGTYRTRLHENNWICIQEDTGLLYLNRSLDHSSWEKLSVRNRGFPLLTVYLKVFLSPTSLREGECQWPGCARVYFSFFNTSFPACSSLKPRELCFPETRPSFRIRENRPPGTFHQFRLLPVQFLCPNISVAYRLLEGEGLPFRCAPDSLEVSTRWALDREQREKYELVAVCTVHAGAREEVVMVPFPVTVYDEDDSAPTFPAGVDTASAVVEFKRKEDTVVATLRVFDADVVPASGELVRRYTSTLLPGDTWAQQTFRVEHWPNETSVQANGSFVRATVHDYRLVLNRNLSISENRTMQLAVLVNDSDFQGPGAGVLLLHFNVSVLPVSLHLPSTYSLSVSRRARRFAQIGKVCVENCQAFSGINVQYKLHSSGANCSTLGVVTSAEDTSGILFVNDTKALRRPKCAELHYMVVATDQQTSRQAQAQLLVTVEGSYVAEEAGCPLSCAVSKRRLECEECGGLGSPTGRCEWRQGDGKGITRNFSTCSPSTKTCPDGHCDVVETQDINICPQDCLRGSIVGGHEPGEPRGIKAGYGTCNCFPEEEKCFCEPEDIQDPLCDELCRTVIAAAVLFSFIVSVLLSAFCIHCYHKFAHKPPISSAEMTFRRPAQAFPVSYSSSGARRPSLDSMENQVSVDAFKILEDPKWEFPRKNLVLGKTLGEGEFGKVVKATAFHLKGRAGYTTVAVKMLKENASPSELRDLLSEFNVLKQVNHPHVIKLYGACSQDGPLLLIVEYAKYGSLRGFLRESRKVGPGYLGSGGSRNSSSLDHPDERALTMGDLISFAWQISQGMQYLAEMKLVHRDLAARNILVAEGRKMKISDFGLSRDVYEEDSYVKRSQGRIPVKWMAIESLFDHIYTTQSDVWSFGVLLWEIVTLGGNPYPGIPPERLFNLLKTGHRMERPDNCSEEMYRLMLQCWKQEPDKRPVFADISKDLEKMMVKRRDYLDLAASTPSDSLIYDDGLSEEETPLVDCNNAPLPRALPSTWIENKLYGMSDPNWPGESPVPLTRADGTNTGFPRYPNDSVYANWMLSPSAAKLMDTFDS
Chain of CSF1R (P07333 20-972 limits assumed): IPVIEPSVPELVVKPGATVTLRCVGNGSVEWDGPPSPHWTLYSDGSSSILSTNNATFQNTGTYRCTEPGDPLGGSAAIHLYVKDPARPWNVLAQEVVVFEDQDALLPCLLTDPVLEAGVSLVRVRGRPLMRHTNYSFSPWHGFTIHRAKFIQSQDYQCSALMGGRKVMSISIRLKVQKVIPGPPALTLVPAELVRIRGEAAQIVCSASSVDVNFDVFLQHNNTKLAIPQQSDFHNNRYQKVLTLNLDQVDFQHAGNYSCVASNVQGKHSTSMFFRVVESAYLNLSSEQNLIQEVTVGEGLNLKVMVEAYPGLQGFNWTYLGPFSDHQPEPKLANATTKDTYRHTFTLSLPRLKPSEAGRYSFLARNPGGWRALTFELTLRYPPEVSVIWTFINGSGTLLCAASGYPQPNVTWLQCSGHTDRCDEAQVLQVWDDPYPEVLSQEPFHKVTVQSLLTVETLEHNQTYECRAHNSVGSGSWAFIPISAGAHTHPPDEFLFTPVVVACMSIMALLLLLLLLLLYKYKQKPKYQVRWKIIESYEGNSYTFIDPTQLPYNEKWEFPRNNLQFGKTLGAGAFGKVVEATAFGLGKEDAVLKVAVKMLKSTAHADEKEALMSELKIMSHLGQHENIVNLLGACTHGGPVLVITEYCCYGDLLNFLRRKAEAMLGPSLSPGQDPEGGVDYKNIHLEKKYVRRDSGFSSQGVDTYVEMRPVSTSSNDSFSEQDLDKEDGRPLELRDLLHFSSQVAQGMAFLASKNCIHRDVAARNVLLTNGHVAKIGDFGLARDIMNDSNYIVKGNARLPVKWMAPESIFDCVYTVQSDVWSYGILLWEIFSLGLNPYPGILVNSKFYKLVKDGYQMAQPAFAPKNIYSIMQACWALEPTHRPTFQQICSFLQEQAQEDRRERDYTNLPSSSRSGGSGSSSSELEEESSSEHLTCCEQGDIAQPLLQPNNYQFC
Chain of ABL1 wt (P00519 118-535 limits assumed): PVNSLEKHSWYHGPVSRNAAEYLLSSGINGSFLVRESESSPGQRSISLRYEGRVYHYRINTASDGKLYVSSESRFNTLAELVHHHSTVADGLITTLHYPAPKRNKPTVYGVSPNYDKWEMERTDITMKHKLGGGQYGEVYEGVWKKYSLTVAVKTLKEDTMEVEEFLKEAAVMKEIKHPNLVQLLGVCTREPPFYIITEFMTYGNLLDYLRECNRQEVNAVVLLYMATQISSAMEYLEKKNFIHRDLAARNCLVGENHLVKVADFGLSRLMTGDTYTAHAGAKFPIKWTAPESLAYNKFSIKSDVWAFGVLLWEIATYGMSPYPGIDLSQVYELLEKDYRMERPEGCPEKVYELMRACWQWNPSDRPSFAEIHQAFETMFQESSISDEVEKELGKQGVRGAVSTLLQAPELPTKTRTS

Cc1cn(-c2cc(NC(=O)c3ccc(C)c(Nc4nccc(-c5cccnc5)n4)c3)cc(C(F)(F)F)c2)cn1 [nilotinib]
terminal / elimination half-life [1]: approximately 17 hours

Cc1nc(Nc2ncc(C(=O)Nc3c(C)noc3C)s2)cc(N2CCN(CCO)CC2)n1 [Compound C9]
Human plasma-protein binding, Percentage unbound (%) ([2]; Table 5A): 6%
Murine plasma protein binding, Percentage unbound (%) ([3]; Table 5A): 44%
Human liver microsomal stability, Intrinsic clearance [4]: <1.4e+07 µL/min/mg
Human liver microsomal stability, % Remaining at 40 min (%) [4]: 89%
IC50 (SIK3): 800 nM
IC50 (SIK2): 232 nM
IC50 (ABL1 wt): 27.4 nM
Mouse liver microsomal stability, Intrinsic clearance (L/min/mg) [5]: <14
Mouse liver microsomal stability, % Remaining at 40 min (%) [5]: 83%
IC50 (SRC (GST-HIS-tag)): 6.44 nM
IC50 (SIK1): 169 nM

Cc1nc(Nc2ncc(C(=O)Nc3c(C)cccc3Cl)s2)cc(N2CCN(CCO)CC2)n1 [Compound A8, N-(2-chloro-6-methylphenyl)-2-((6-(4-(2-hydroxyethyl)piperazin-1-yl)-2-methylpyrimidin-4-yl)amino)thiazole-5-carboxamide]
inhibition of hERG currents at 3 uM (hERG potassium channel): about 6%
inhibition of hERG currents at 10 uM (hERG potassium channel): ~36%
Papp (MDR1 (P-gp)): 105 ×10⁻⁶ cm/s
Papp (MDR1 (P-gp); Mean Papp A > B (10^−6 cm/s)): 2.4 ×10⁻⁶ cm/s
Papp (in vitro [6]; Mean Papp A > B (10^−6 cm/s)): 21 ×10⁻⁶ cm/s
Papp (in vitro [6]; Mean Papp B > B (10^−6 cm/s)): 49 ×10⁻⁶ cm/s
severe gastrointestinal haemorrhage, including fatalities ([7]; all clinical studies): 4 % of patients
cardiomyopathy, heart failure congestive, diastolic dysfunction, fatal myocardial infarction, and left ventricular dysfunction ([7]; human, in vivo): 1.6 % of patients
remaining activity at 1 µM (RET [8]): < 40%
HCK residual activity (HCK): less than 1%
Cmax after 2 h [9]: 550 ng/mL
outcome in mice bearing large KU812 tumours (KU812 tumours): curative
patients with cardiomyopathy, heart failure congestive, diastolic dysfunction, fatal myocardial infarction, and left ventricular dysfunction [10]: 1.6%
survival of mice inoculated intracranially with K562 CML cells (K562 CML cells): increased survival
RET residual activity (%) at 1 μM (RET [11]): 39%
Cmax (ng/ml), Total [12]: 550 ng/mL

Cc1ccc(NC(=O)c2ccc(CN3CCN(C)CC3)cc2)cc1Nc1nccc(-c2cccnc2)n1 [imatinib]
outcome in mice bearing K562 human CML tumours (K562 human CML tumours): failed to produce a comparative response

Cc1nc(Nc2ncc(C(=O)Nc3c(C)csc3Cl)s2)cc(N2CCN(CCO)CC2)n1 [Compound C7, N-(2-chloro-4-methylthiophen-3-yl)-2-((6-(4-(2-hydroxyethyl)piperazin-1-yl)-2-methylpyrimidin-4-yl)amino)thiazole-5-carboxamide]
quinone-imine reactive metabolite [13]: not observed
IC50 (HCT116 cells): < 100 nM
half-life [14]: > 150 min
Human plasma-protein binding, Percentage unbound (%) ([2]; Table 5A): <1%
Human plasma-protein binding, Percentage unbound (%) ([2]; Table 5.1A): 2%
recovery at 4 h ([2]; human): 75%
Papp (MDR1 (P-gp); Mean Papp A > B (10^−6 cm/s)): 2 ×10⁻⁶ cm/s
cell killing (KASUMI-1 cell line [15]): highly potent cell killing
half-life ([16]; read-out: Human hepatocyte stability, Half-life): 54 min
microsomal CLint ([16]; read-out: Human hepatocyte stability, Intrinsic clearance): 26 µL/min/mg
half-life ([16]; read-out: half-life in the presence of human hepatocytes (converted)): ~60 min
Papp (in vitro [6]; Mean Papp A > B (10^−6 cm/s)): 9 ×10⁻⁶ cm/s
Murine plasma protein binding, Percentage unbound (%) ([3]; Table 5A): 5%
Murine plasma protein binding, Percentage unbound (%) ([3]; Table 5.1A): 3%
recovery at 4 h ([3]; mouse): 87%
half-life (in vitro [17]): 10 min
microsomal CLint (in vitro [17]): 142 µL/min/mg
GI50 (HEL cell line [18]): ~5000 nM
half-life (in vitro [19]): 13 min
microsomal CLint (in vitro [19]): 110 µL/min/mg
Inhibition of NFKB activity (MC38) [20]: +
Inhibition of NFKB activity (PANC-1) ([21]; PANC-1 reporter cells): +
Inhibition of NFKB activity ([21]; PANC-1 reporter cells (Table 9C)): +
lysis of AML cell lines (panel of AML cell lines): strong lysis
tolerable dose (BID by gavage, female C57BL/6, seven days): up to 100 mg/kg
HRD in vivo @BID (highest recommended dose, BID): 100 mg/kg
HRD in vivo @QD (highest recommended dose, QD): 100 mg/kg
GI50 (MV4-11 cell line): 480 nM
Body weight increase (%) [22]: 1.0%
Non-treatment related death [22]: 3/16
Tumour growth inhibition (%) [22]: 78%
Human liver microsomal stability, Intrinsic clearance [4]: 2.53e+08 µL/min/mg
Human liver microsomal stability, % Remaining at 40 min (%) [4]: 1%
CSF1R residual activity (CSF1R): less than 1%
half-life [23]: > 150 min
half-life [24]: 50 min
microsomal CLint ([24]; read-out: Mouse hepatocyte stability, Intrinsic clearance): 28 µL/min/mg
cell killing (HEL cell line [25]): low cell killing
AUC(0-inf) (in vivo): 1.31 µM·h
AUC(0-t) (in vivo): 1.16 µM·h
Cmax (in vivo): 474 ng/mL
MRT last (in vivo): 165 min
half-life (in vivo): 85.2 min
% AUCextrap ([26]; male, CD1, mouse, iv, 1 mg/kg): 5.81%
% AUCextrap ([26]; male, CD1, mouse, po, 30 mg/kg): 0.45%
% AUCextrap, Free ([26]; male, CD1, mouse, po, 30 mg/kg): 11.24%
% AUCextrap, Total ([26]; male, CD1, mouse, po, 30 mg/kg): 11.24%
AUCinf (nM*h), Free ([26]; male, CD1, mouse, po, 30 mg/kg): 58.79 nM·h
AUClast (nM*h), Free ([26]; male, CD1, mouse, po, 30 mg/kg): 52.07 nM·h
Rsq, Free ([26]; mouse, po, 30 mg/kg): 0.99
Rsq, Total ([26]; mouse, po, 30 mg/kg): 0.99
GI50 (KASUMI-1 cell line [27]; Homo sapiens, Kasumi 1, read-out: GI50 against KASUMI-1 cell line, pMEF2C-positive): ~2 nM
GI50 (KASUMI-1 cell line [27]; read-out: GI50 against KASUMI-1 cell line, pMEF2C-positive): 1.6 nM
IC50 ([28]; MC-38, read-out: MC38 IC50 (at 100 ng/mL rMuTNF)): < 200 nM
EC50 ([28]; MC-38, read-out: mean EC50 of sensitising MC38 tumour cells to TNF-mediated killing): ~150 nM
Mouse liver microsomal stability, % Remaining at 40 min (%) [5]: 10%
HCK residual activity (HCK): less than 1%
Inhibition of HDAC4 phosphorylation ([29]; 3 h): +
Inhibition of HDAC4 phosphorylation ([29]; 3 h (Table 9C)): +

COc1ccc(N2C(=O)N(c3c(C)cccc3Cl)Cc3cnc(Nc4ccc(C5CCN(C)CC5)cc4OC)nc32)nc1 [YKL-05-099]
AML progression (AML): supressed AML progression in-vivo
